Test results from ChEMBL document CHEMBL4765487, “From a Designer Drug to the Discovery of Selective Cannabinoid Type 2 Receptor Agonists with Favorable Pharmacokinetic Profiles for the Treatment of Systemic Sclerosis” (J Med Chem, 2021).
Activity calls are given as the source filed them. The rule behind the calls is not given here.

Key:
Cannabinoid receptor 1 [1] = biological target: T1, Cannabinoid receptor 1 (Homo sapiens, UniProt P21554); experiment: Agonist activity at human CB1 receptor expressing CHO cells co-expressing Galpha16 by calcium mobilization assay; assay type: functional, cell-based
Cannabinoid receptor 1 [2] = biological target: T1, Cannabinoid receptor 1; experiment: Agonist activity at human CB1 receptor expressing CHO cells co-expressing Galpha16 by calcium mobilization assay relative to CP55940; assay type: functional, cell-based
Cannabinoid receptor 2 [3] = biological target: T2, Cannabinoid receptor 2 (Homo sapiens, UniProt P34972); experiment: Agonist activity at human CB2 receptor expressing CHO cells co-expressing Galpha16 by calcium mobilization assay; assay type: functional, cell-based
Cannabinoid receptor 2 [4] = biological target: T2, Cannabinoid receptor 2; experiment: Agonist activity at human CB2 receptor expressing CHO cells co-expressing Galpha16 by calcium mobilization assay relative to CP55940; assay type: functional, cell-based; conditions: filed as agonist
Cannabinoid receptor 2 [5] = biological target: T2, Cannabinoid receptor 2; experiment: Agonist activity at human CB2 receptor expressing CHO cells co-expressing Galpha16 in presence of CB2 antagonist AM630 by calcium mobilization assay; assay type: functional, cell-based
[6] = Cmax in BALB/c mouse at 1 mg/kg, iv measured during 0.083 to 24 hrs post dose by LC-MS/MS analysis; assay type: ADME, organism-based; design: route intravenous, time upper 24 hrs, dose 1 mg/kg, time lower 0.083 hrs; conditions: in vivo
[7] = Cmax in BALB/c mouse at 5 mg/kg, po measured during 0.083 to 24 hrs post dose by LC-MS/MS analysis; assay type: ADME, organism-based; design: route oral, time 0.083-24 hrs, dose 5 mg/kg; conditions: in vivo
[8] = AUC (0 to infinity) in BALB/c mouse at 5 mg/kg, po measured during 0.083 to 24 hrs post dose by LC-MS/MS analysis; assay type: ADME, organism-based; design: route oral, dose 5 mg/kg, time 0.083-24 hrs; conditions: in vivo
[9] = Volume of distribution in BALB/c mouse at 1 mg/kg, iv measured during 0.083 to 24 hrs post dose by LC-MS/MS analysis; assay type: ADME, organism-based; conditions: in vivo, time 0.083-24 hrs
[10] = Clearance in BALB/c mouse at 1 mg/kg, iv measured during 0.083 to 24 hrs post dose by LC-MS/MS analysis; assay type: ADME, organism-based; conditions: in vivo, time 0.083-24 hrs
[11] = Half life in BALB/c mouse at 5 mg/kg, po measured during 0.083 to 24 hrs post dose by LC-MS/MS analysis; assay type: ADME, organism-based; conditions: in vivo, time 0.083-24 hrs
Cannabinoid receptor 2 [12] = biological target: T2, Cannabinoid receptor 2; experiment: Agonist activity at human CB2 receptor expressed in CHO cells assessed as increase in ERK1/2 Thr202/Tyr204 phosphorylation at 0.1 to 10 uM incubated for 15 mins by Western blot analysis; assay type: cell-based; conditions: filed as agonist, dose 0.1-10 µM
CHO = experiment: Effect on ERK1/2 Thr202/Tyr204 phosphorylation in CHO cells at 0.1 to 10 uM incubated for 15 mins by Western blot analysis; assay type: functional, cell-based; conditions: Cricetulus griseus, dose 0.1-10 µM
Cannabinoid receptor 2 [13] = biological target: T2, Cannabinoid receptor 2; experiment: Agonist activity at human CB2 receptor expressed in CHO cells assessed as increase in ERK1/2 Thr202/Tyr204 phosphorylation at 10 uM incubated for 15 mins in presence of CB2 antagonist AM630 by Western blot analysis; assay type: cell-based
Cannabinoid receptor 1 [14] = biological target: T1, Cannabinoid receptor 1; experiment: Agonist activity at human CB1 receptor expressed in HEK293 cells after 24 hrs by luciferase reporter gene assay based Tango beta-arrestin recruitment method; assay type: cell-based
Cannabinoid receptor 2 [15] = biological target: T2, Cannabinoid receptor 2; experiment: Agonist activity at human CB2 receptor expressed in HEK293 cells after 24 hrs by luciferase reporter gene assay based Tango beta-arrestin recruitment method; assay type: cell-based
[16] = biological target: T3, Glucose-dependent insulinotropic receptor (Homo sapiens) (UniProt Q8TDV5); experiment: Antagonist activity at GPR119 (unknown origin) at 10 uM
T3 sequence (whole entry): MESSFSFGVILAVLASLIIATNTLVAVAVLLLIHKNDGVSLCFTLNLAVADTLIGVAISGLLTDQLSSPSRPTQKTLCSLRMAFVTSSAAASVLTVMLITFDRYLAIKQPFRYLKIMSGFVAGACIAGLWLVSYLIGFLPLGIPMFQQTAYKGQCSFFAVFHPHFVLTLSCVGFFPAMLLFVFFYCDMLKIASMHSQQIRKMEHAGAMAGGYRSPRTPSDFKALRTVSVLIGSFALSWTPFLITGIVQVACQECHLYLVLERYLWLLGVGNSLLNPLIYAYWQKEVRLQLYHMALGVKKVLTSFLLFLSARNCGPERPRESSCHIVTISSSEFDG

[17] = biological target: T4, Probable G-protein coupled receptor 132 (Homo sapiens) (UniProt Q9UNW8); experiment: Agonist activity at GPR132 (unknown origin) at 10 uM
T4 sequence (whole entry): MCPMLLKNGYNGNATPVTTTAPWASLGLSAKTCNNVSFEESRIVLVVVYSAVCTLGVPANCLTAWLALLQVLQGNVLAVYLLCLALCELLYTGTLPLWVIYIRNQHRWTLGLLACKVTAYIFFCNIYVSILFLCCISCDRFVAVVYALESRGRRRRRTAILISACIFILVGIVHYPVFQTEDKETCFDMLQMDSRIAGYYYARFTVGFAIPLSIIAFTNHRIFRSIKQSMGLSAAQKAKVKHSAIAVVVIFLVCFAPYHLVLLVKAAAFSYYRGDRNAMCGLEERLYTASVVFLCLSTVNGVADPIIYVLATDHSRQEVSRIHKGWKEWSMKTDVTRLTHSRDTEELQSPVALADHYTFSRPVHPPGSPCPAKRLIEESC

[18] = biological target: Prostaglandin E2 receptor EP4 subtype (Homo sapiens) (UniProt P35408); experiment: Agonist activity at EP2 (unknown origin) at 10 uM
[19] = biological target: Prostaglandin E2 receptor EP4 subtype (Homo sapiens) (UniProt P35408); experiment: Antagonist activity at EP2 (unknown origin) at 10 uM
[20] = biological target: Prostaglandin E2 receptor EP4 subtype (Homo sapiens) (UniProt P35408); experiment: Agonist activity at EP4 (unknown origin) at 10 uM
Cannabinoid receptor 1 [21] = biological target: T1, Cannabinoid receptor 1; experiment: Agonist activity at human CB1 receptor expressing CHO cells co-expressing Galpha16 at 10 uM by calcium mobilization assay; assay type: functional, cell-based; conditions: filed as agonist
Cannabinoid receptor 1 [22] = biological target: T1, Cannabinoid receptor 1; experiment: Induction of receptor desensitization at human CB1 receptor expressing CHO cells co-expressing Galpha16 at 10 uM followed by washing with HBSS buffer upon incubation for 10 mins and restimulated with CP55940 by calcium mobilization assay; assay type: functional, cell-based; conditions: filed as agonist
Mus musculus [23] = experiment: Antifibrotic activity in BALB/c mouse model of BLM-induced systemic sclerosis assessed as reduction in dermal pathological symptoms at 1 to 5 mg/kg, sc dosed once daily for 4 weeks by H and E staining based analysis; assay type: functional, organism-based; conditions: dose 1-5 mg/kg
Mus musculus [24] = experiment: Antifibrotic activity in BALB/c mouse model of BLM-induced systemic sclerosis assessed as reduction in skin thickness at 5 mg/kg, sc dosed once daily for 4 weeks by H and E staining based analysis; assay type: functional, organism-based
Mus musculus [25] = experiment: Antifibrotic activity in BALB/c mouse model of BLM-induced systemic sclerosis assessed as reduction in Col1alpha mRNA expression at 1 to 5 mg/kg, sc dosed once daily for 4 weeks by quantitative real-time PCR analysis; assay type: functional, organism-based; conditions: dose 1-5 mg/kg
Mus musculus [26] = experiment: Antifibrotic activity in BALB/c mouse model of BLM-induced systemic sclerosis assessed as reduction in alpha-SMA mRNA expression at 1 to 5 mg/kg, sc dosed once daily for 4 weeks by quantitative real-time PCR analysis; assay type: functional, organism-based; conditions: dose 1-5 mg/kg
Mus musculus [27] = experiment: Antifibrotic activity in BALB/c mouse model of BLM-induced systemic sclerosis assessed as reduction in TGF-beta mRNA expression at 1 to 5 mg/kg, sc dosed once daily for 4 weeks by quantitative real-time PCR analysis; assay type: functional, organism-based; conditions: dose 1-5 mg/kg
in vitro [28] = conditions: human, liver microsomes
Description: Half life in human liver microsomes at 1 uM in presence of NADPH by LC-MS/MS analysis

in vitro [29] = conditions: human, liver microsomes; remark: listed apart in the source
in vitro [30] = conditions: human, liver microsomes; remark: listed apart in the source
Description: Stability in human liver microsomes assessed as parent compound remaining at 1 uM incubated for 60 mins in presence of NADPH by LC-MS/MS analysis

Sequence of Prostaglandin E2 receptor EP4 subtype (Homo sapiens) (P35408 whole entry): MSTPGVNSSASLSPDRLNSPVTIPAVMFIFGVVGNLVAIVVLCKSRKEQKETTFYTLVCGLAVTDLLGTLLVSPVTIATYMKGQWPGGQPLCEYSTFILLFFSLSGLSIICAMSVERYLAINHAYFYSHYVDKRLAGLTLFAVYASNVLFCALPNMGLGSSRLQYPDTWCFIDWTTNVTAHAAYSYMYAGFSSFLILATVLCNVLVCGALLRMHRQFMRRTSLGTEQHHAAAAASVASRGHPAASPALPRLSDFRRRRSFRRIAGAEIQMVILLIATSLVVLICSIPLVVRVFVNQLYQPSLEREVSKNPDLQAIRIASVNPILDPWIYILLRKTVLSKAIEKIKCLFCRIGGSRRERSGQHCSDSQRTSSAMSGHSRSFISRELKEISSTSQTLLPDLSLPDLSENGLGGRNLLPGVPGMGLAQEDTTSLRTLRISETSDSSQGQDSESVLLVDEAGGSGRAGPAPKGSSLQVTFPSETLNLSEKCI
T2 sequence (P34972 whole entry): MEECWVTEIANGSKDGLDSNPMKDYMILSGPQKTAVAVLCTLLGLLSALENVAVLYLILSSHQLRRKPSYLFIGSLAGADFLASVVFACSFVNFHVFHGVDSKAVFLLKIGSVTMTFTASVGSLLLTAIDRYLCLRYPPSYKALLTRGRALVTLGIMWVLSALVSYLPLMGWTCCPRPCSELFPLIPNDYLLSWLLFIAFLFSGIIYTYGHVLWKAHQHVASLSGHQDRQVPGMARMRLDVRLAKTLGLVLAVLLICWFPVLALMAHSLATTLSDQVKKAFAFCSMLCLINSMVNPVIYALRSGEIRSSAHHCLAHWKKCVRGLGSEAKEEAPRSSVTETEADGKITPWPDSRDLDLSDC
T1 sequence (P21554 whole entry): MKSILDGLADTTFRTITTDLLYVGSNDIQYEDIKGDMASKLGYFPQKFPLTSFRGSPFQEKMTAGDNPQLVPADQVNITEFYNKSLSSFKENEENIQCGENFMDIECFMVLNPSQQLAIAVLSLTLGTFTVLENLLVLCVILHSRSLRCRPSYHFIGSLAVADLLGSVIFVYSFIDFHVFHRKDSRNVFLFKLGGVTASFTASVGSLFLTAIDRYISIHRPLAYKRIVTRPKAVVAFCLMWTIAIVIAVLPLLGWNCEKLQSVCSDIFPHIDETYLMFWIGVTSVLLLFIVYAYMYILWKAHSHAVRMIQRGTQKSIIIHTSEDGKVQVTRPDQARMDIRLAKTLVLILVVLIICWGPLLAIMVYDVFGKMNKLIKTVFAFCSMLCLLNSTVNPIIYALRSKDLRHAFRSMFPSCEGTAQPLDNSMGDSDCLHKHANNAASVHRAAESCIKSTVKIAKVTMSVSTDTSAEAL

In the case of `CC(C)(CO)NC(=O)c1cc(C(C)(C)C)n(-c2ccc(C(F)(F)F)cn2)n1`, the EC50 (Cannabinoid receptor 1 [1]) is reported as 1.84 µM, the Emax (Cannabinoid receptor 1 [2]) is reported as 30% and the EC50 (Cannabinoid receptor 2 [3]) is reported as 0.0152 µM. The Emax (Cannabinoid receptor 2 [4]) was 100%, the Activity (Cannabinoid receptor 2 [5]) was “inactive” and the Cmax [6] was 959 ng/mL. It also gave a Cmax [7] of 603 ng/mL, an AUC(0-inf) [8] of 1670 ng·h/mL and a Vd [9] of 4.5 L/kg. The clearance [10] was 40 mL/min/kg, the half-life [11] was 2.18 h and the Activity (Cannabinoid receptor 2 [12]) was “Active”. The Activity (CHO) was “inactive”, the Activity (Cannabinoid receptor 2 [13]) was “inactive” and the EC50 (Cannabinoid receptor 1 [14]) was greater than 10 µM. For the same compound, the EC50 (Cannabinoid receptor 2 [15]) was 0.562 µM, the Activity [16] was “inactive” and the Activity [17] was “inactive”. The Activity [18] was “inactive”, the Activity [19] was “inactive” and the Activity [20] was “inactive”. For the same compound, the Activity (Cannabinoid receptor 1 [21]) was “Active”, the Activity (Cannabinoid receptor 1 [22]) was “Active” and the Activity (Mus musculus [23]) was “Active”. For the same compound, the Activity (Mus musculus [24]) was “Active”, the Activity (Mus musculus [25]) was “Active” and the Activity (Mus musculus [26]) was “Active”. For the same compound, the Activity (Mus musculus [27]) was “Active”, the half-life at 1 µM (in vitro [28]) was 1.88 h and the microsomal CLint at 1 µM (in vitro [29]) was 12.3 µL/min/mg. The remaining at 1 h, 1 µM (in vitro [30]) was 64%.
